Values of other authors, collected in patent US7649096B2, “Process for the preparation of a crystalline form of (S)-N [[3-(3-fluoro-4(4-morpholinyl) phenyl]-2-oxo-5-oxazolidinyl] methyl] acetamide” (Glenmark Pharmaceuticals Limited, priority 2005, dated 2010).

Assays:
enterococci = conditions: against enterococci
staphylococci = conditions: against staphylococci
streptococci = conditions: majority of strains

CC(=O)NC[C@H]1CN(c2ccc(N3CCOCC3)c(F)c2)C(=O)O1 [linezolid, (S)-N-[[3-[3-fluoro-4-(4-morpholinyl)phenyl]-2-oxo-5-oxazolidinyl]methyl]acetamide]
results of time-kill studies (bacteriostatic or bactericidal) (enterococci): bacteriostatic | results of time-kill studies (bacteriostatic or bactericidal) (staphylococci): bacteriostatic | results of time-kill studies (bacteriostatic or bactericidal) (streptococci): bactericidal for the majority of strains
